Assay results published in patent US20250017964A1, “ENGINEERING OR INDUCING PDGF AND/OR PDGFR SIGNALING TO ENHANCE NK CELL THERAPY” (City of Hope, priority 2021, published 2025).

How the values were obtained:
Format in all cases: cell-based, human
PDGFRB promoter = test: ChIP-qPCR, binding of p65 to the PDGFRB promoter; conditions: IL-15-stimulated NK cells (1 h); not in resting NK cells
Experimental: FIGS. 2A-2I. IL-15-induced PDGFRβ expression is mediated by PI3K/AKT signaling. (A-B) Primary NK cells were treated with IL-15 (10 ng/ml) for the indicated times. mRNA levels of PDGFRB at different time points (A) (n=3) or at 1 h (B) (n=10) were examined by qPCR. (C-D) Primary NK cells were pretreated with actinomycin D (ActD, 5., g/ml) (C) or cycloheximide (CHX, 20 μg/ml) (D) for 1 h, washed twice with RPMI-1640, and then treated with IL-15 (10 ng/ml) for 24 h. DMSO was used as a control. Expression levels of PDGFRβ were examined by flow cytometry (n=5). Data shown are representative histograms and percentage of inhibition with the equation: % inhibition=[…]. (E) Primary NK cells were pretreated with wortmannin (1 μM), afuresertib (10 μM), TPCA-1 (1 μM), rapamycin (10 μM), torin1 (10 μM), decernotinib (10 μM), C118-9 (10 μM), STAT5-IN-1 (10 μM), AZD6244 (10 μM), or CI-1040 (10 μM) for 1 h, washed twice with RPMI 1640, and then treated with IL-15 (10 ng/ml) for 24 h. DMSO was used as control. Data shown are % of inhibition (n=5). The mean value of the inhibitory rate is shown. […] (G-I) Binding of p65 to the PDGFRB promoter in IL-15-treated NK cells (G) or resting NK cells (H) as determined by ChIP-qPCR or PCR (I) (n=3). […]
Primary NK cells were treated with IL-15 for 1 h. […] The enriched chromatin was analyzed by qPCR using the following primers: […]

NK cells [1] = test: NK cell expansion in vitro, cell counts by trypan blue exclusion; conditions: 7 days
BCL-2, BCL-XL, and MCL-1 = test: Immunoblot of BCL-2, BCL-XL and MCL-1 in NK cells; conditions: 48 h
NK cells [2] = test: NK cell effector functions and surface receptors, flow cytometry; conditions: IL-15-primed NK cells (10 ng/ml), PDGF ligand 50 ng/ml, 48 h
Experimental: FIGS. 3A-3K. […] (A-E) Primary NK cells were treated with IL-15 (10 ng/ml) in the presence of PDGF-B (50 ng/ml) or PDGF-D (50 ng/ml) for 48 h. Expression levels of IFN-γ, TNF-α, granzyme B, perforin, and CD107a were examined by flow cytometry (n=5). (F-K) Primary NK cells were treated with IL-15 (10 ng/ml) plus PDGF-D (50 ng/ml) in the presence of anti-NKp44 (10 βg/ml) or anti-PDGFRβ (10 μg/ml) for 48 h. Expression levels of IFN-γ, TNF-α, and CD107a were examined by flow cytometry (n=3). Data represent three independent experiments. Data shown are means±SD. NS, not significant. *P<0.05, **P<0.01, and ***P<0.001.
FIGS. 10A-10K. […] (A-E) Representative histograms and summary data of IFN-γ, TNF-α, granzyme B, perforin, and CD107a in PDGFRβ^+ and PDGFRβ^− NK cells. Cells were gated on CD56^+PDGFRβ^+ or CD56^+PDGFRβ^− cells. (F) PDGFRβ^+ and PDGFRβ^− NK cells were sorted by flow cytometry and co-cultured with ^51 Cr-labeled K562 cells in a 96-well V-bottom plate at ratios of 5:1, 2.5:1, or 1.25:1 for 4 h at 37° C. in a 5% CO2 incubator. The supernatant was harvested and analyzed using a microbeta scintillation counter (n=3). […]
Cells were stained with the indicated cell-surface markers and/or fixed/permeabilized using a Fixation/Permeabilization Kit (eBioscience). […] Data were analyzed using NovoExpress software (Agilent Technologies).

Substance | p65 associated with the PDGFRB promoter versus normal IgG control (PDGFRB promoter) | expansion of primary NK cells transduced with PDGFRβ (NK cells [1]; IL-2 50 U/ml and PDGF-D 50 ng/ml) | NK cell expansion (NK cells [1]; primary NK cells, IL-15 10 ng/ml and PDGF-D 50 ng/ml) | expression levels of BCL-2, BCL-XL, and MCL-1 (BCL-2, BCL-XL, and MCL-1; IL-15 10 ng/ml and PDGF-D 50 ng/ml) | receptor dependence of the BCL-2, BCL-XL, and MCL-1 increase (BCL-2, BCL-XL, and MCL-1; with anti-NKp44 or anti-PDGFRβ) | expression of IFN-γ, TNF-α, perforin, and CD107a (NK cells [2]) | expression of granzyme B (NK cells [2])
IL-15: recombinant human IL-15 (200-15); recombinant murine IL-15 in the mouse NK cell test | significantly higher levels | – | – | – | – | – | –
PDGF-D: recombinant human PDGF-DD (1159-SB-025), R&D Systems | – | enhanced the expansion | promoted cell expansion | increased the expression levels | NKp44-independent but PDGFRβ-dependent | induced | not granzyme B
